In data set [1] the target is recombinant human Estrogen Receptor alpha ligand binding domain (ER alpha-LBD (GST)) (Homo sapiens (Human), UniProt P03372). As to the kind of experiment: ERα binding assay (LanthaScreen TR-FRET competition). The following applies: TR-FRET, displacement of Fluormone ES2. On the procedure:
The ability of compounds to bind to isolated Estrogen Receptor Alpha Ligand binding domain (ER alpha-LBD (GST)) was assessed in competition assays using a LanthaScreen™ Time-Resolved Fluorescence Resonance Energy Transfer (TR-FRET) detection end-point. […] The assay principle is that ER alpha-LBD (GST) is added to a fluorescent ligand to form a receptor/fluorophore complex. A terbium-labelled anti-GST antibody (Product code PV3551) is used to indirectly label the receptor by binding to its GST tag, and competitive binding is detected by a test compound's ability to displace the fluorescent ligand, resulting in a loss of TR-FRET signal between the Tb-anti-GST antibody and the tracer. The assay was performed as follows with all reagent additions carried out using the Beckman Coulter BioRAPTR FRD microfluidic workstation: • 1. Acoustic dispense 120 nL of the test compound into a black low volume 384 well assay plates. • 2. Prepare 1×ER alpha-LBD/Tb-antiGST Ab in ES2 screening buffer and incubate for 15 minutes. • 3. Dispense 6 μL of the 1×[…]/Tb-anti-GST Ab reagent into each well of the assay plate followed by 6 μL of Fluorophore reagent into each well of the assay plate • 4. Cover the assay plate to protect the reagents from light and evaporation, and incubate at room temperature for 4 hours. • 5.
TR-FRET dose response data obtained with each compound was exported into a suitable software package (such as Origin or Genedata) to perform curve fitting analysis. Competitive ER alpha binding was expressed as an IC50 value.
(In general: In TR-FRET formats the signal depends on donor and acceptor labels being close together.)

A short description of data set [2]: Thermodynamic solubility (shake-flask). It is filed as physicochemical. The following applies: aqueous phosphate buffer, 25 °C, pH 7.4, aqueous buffer, thermodynamic from solid, aqueous phosphate buffer pH 7.4, 24 hours. On the procedure:
The thermodynamic solubility of a research compound is measured under standard conditions. It is a shake-flask approach that uses 10 mM DMSO solutions which are supplied from the Compound Managements liquid store and is a high throughput method. The dried compounds are equilibrated in an aqueous phosphate buffer (pH 7.4) for 24 hours at 25° C., the portion with the dissolved compound is then separated from the remains. The solutions are analyzed and quantified using UPLC/MS/MS, QC-samples are incorporated in each assay-run to ensure the quality of the assay.

A short description of data set [3]: log D (shake flask, 1-octanol/aqueous buffer). The data set is classed as physicochemical. The text has this:
The lipophilicity of a drug is an important physical property which may influence many biological and metabolic properties of a compound, for example the absorption, distribution, metabolism, excretion and toxicity profiles of a compound. The distribution coefficient between 1-octanol and aqueous buffer, Log DO/W, at pH 7.4, is the most commonly used measurement of the lipophilicity of a compound. The current method for measurement of Log DO/W is based on the traditional shake flask technique, but with the modification of measuring compounds in mixtures of ten at a time using UPLC with quantitative mass spectrometry (MS) as a method to measure the relative octanol and aqueous concentrations. […] An additional QC sample Caffeine, with low Log D, are used and randomly placed in all runs. The method has been thoroughly validated against the previous shake flask methodologies.

A further data set deals with hERG potassium channel (Homo sapiens (Human), UniProt Q12809). The data set is described as follows: hERG binding assay (automated patch clamp, CHO cells). The data set is classed as cell-based. The following applies: CHO cell line, Nanion Syncropatch 384PE. On the procedure:
Reagent preparations include: • 1.
Cell preparations: • 1. If using cell culture; cells to be incubated at 30° C. for approximately 4-6 days prior to being used. Day of assay lift cells using accutase and re-suspend in 20 ml cell buffer to a density of 0.8 to 1e6 cells/ml. • 2. If using assay ready cryovials; rapidly thaw two cryovials at 37° C. and slowly pipette into 23 ml external solution • 3.
All compounds were acoustically dispensed in quadruplicate using a Labcyte Echo. […] Fill 384 well medium resistance 4 hole chips with 40 μl external buffer and perfuse internal buffer to the underside of plate. • 2. Dispense 20 μl of cells into each well of the chip followed by 20 μl of seal enhancer. • 3. Remove 40 μl of reagent from each well to the wash station, leaving a residual volume of 40 μl • 4. Dispense 40 μl of reference buffer with a removal step of 40 μl after 3 min, repeat this step. • 5.
hERG-mediated currents were elicited using a voltage step protocol consisting of acontinuous holding voltage of −80 mV, with a 500 ms step to 60 mV followed by a 500 ms step to −40 mV every 15 seconds. hERG current magnitude was measured automatically from the leak-subtracted traces by the Nanion software by taking the peak of the hERG “tail” current at −40 mV every 15 seconds and taking the last three of these responses for each concentration to generate the concentration-effect curve.
Calculation of results is performed using APC package within Genedata. For the routine normalization of well data with Neutral and Inhibitor control well groups as reference, GeneData Assay Analyzer uses the following equation to normalize the signal values to the desired signal range:
[formula] • x is the measured raw signal value of a well • is the median of the measured signal values for the Central Reference (Neutral) wells on a plate • is the median of the measured signal values for the Scale Reference (Inhibitor) wells on a plate • CR is the desired median normalized value for the Central Reference (Neutral) • SR is the desired median normalized value for the Scale Reference (Inhibitor)
For orientation: hERG is a cardiac potassium channel; its block is linked to QT prolongation.

A short description of data set [4]: Human plasma protein binding (equilibrium dialysis). The following applies: dialysis 18 hours. The data set is classed as in vitro ADME. On the procedure:
The automated equilibrium dialysis assay in human plasma uses the RED (Rapid Equilibrium Dialysis) Device and sample handling. The assay generally runs over two to three days including delivery of results. After dialysis for 18 hours, plasma and buffer samples are prepared for analysis by liquid chromatography and mass spectrometry. Samples are generally tested in singlicates and quantified by LC/MSMS by using a 7-point calibration curve in plasma. The compounds are pooled together in plasma pools up to 10 compounds. Three reference compounds are used in each run, Propranolol, Metoprolol and Warfarin. Warfarin is used as a control in each pool and Propranolol and Metoprolol are placed randomly in each run. An in-house Excel macro is used for preparation of files for the robot and the mass spectrometer and is also used for the calculations of fraction unbound (fu %) in plasma.
Background: In equilibrium dialysis only unbound substance equilibrates across the membrane.

The target of data set [5] is Estrogen Receptor (ERα) in MCF-7 cells (Homo sapiens (Human), UniProt P03372). The data set is described as follows: MCF-7 ER down-regulation assay (immuno-fluorescence). The data set is classed as cell-based. As for the experimental part:
The Echo uses acoustic technology to perform direct microplate-to-microplate transfers of DMSO compound solutions to assay plates. […] Cells were fixed at room temperature for 20 mins before being washed two times with 250 μL PBS/Proclin (PBS with a Biocide preservative) using a BioTek platewasher, 40 μL of PBS/Proclin was then added to all wells and the plates stored at 4° C. The fixing method described above was carried out on the Integrated Echo 2 workcell. Immunostaining was performed using an automated AutoElisa workcell. […] The plates were incubated overnight at 4° C. […] The mean total intensity was normalized for cell number giving the total intensity per cell. The data was exported into a suitable software package (such as Origin) to perform curve fitting analysis.

Where [6] appears, read: pH 7.4, 1-octanol/aqueous buffer.
Where [7] appears, read: 1-octanol/aqueous buffer, pH 7.4, pH 7.4, 1-octanol/aqueous buffer.

≈ marks a conversion by molar mass, not a printed value.

Estrogen Receptor (ERα) in MCF-7 cells, sequence (P03372 whole entry): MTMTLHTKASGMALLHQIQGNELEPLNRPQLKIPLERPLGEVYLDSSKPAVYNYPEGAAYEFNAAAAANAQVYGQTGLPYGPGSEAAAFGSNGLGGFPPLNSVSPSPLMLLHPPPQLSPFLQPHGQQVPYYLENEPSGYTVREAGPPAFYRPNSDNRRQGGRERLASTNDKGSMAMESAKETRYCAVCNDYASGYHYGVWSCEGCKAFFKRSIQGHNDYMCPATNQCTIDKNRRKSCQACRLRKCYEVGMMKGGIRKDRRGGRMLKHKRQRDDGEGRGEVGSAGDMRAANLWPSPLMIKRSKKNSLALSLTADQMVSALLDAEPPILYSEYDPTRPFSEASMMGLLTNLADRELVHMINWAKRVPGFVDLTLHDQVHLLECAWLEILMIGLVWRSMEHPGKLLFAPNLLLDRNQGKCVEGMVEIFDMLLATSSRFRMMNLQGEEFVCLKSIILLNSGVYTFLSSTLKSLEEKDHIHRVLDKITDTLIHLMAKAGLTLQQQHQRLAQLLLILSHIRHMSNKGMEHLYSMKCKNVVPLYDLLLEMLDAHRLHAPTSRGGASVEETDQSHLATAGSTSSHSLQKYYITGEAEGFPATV
hERG potassium channel, sequence (Q12809 whole entry): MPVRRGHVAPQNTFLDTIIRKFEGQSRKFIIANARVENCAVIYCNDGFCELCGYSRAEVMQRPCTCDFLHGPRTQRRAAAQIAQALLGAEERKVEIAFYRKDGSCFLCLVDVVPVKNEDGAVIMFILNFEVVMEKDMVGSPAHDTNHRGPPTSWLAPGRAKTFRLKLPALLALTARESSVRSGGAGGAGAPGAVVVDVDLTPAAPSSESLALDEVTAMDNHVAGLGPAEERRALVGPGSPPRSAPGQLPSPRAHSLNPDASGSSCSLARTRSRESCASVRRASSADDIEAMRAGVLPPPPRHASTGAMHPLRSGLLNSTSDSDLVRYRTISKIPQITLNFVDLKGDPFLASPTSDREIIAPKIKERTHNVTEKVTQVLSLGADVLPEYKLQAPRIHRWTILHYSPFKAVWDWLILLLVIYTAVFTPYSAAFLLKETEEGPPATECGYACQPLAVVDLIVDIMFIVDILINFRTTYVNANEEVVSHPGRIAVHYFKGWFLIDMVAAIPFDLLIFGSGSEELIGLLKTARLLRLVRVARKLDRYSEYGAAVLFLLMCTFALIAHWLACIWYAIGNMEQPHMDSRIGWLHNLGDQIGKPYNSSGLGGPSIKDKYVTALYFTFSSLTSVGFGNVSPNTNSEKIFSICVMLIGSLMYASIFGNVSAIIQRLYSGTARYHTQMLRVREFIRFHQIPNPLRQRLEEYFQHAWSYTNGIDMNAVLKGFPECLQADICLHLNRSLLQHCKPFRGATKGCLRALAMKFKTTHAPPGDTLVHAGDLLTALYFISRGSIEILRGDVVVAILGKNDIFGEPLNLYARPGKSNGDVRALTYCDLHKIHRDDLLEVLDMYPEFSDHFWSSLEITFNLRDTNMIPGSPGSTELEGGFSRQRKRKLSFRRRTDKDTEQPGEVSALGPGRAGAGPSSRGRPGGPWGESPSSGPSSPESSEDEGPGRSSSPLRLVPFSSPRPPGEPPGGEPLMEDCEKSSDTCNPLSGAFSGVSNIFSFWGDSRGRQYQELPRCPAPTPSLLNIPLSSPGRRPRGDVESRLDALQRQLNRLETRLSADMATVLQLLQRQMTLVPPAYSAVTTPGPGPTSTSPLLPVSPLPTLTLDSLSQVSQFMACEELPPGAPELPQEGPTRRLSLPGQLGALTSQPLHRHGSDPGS
recombinant human Estrogen Receptor alpha ligand binding domain (ER alpha-LBD (GST)), sequence (P03372 307-554): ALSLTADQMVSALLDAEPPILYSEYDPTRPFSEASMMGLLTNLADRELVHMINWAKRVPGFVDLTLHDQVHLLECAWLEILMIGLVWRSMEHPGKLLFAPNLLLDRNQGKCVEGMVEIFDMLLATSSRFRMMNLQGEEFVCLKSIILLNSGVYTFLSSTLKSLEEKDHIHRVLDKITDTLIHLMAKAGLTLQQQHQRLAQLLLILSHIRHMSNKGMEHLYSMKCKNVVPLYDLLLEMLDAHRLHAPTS

As for `CC1(C)Cc2c(ccc3[nH]ncc23)[C@@H](c2ccc(NC3CN(CCCF)C3)cn2)N1CC(F)F` [Example 73, (S)-6-(7-(2,2-difluoroethyl)-8,8-dimethyl-6,7,8,9-tetrahydro-3H-pyrazolo[4,3-f]isoquinolin-6-yl)-N-(1-(3-fluoropropyl)azetidin-3-yl)pyridin-3-amine], the figures for the IC50 (in data set [1]; on hERG potassium channel; in data set [5]) were 3.4 nM, 12000 nM and 0.77 nM, respectively. In data set [2], this molecule showed a solubility at 24 h of 925 µM (≈ 437 µg/mL). Also, in data set [3] (setting [6]), the logD worked out at 3. In addition, the “Human plasma protein binding (% free)” value in data set [4] is on record as 22 % free.

As to `C[C@@H]1Cc2c(ccc3[nH]ncc23)[C@@H](c2ccc(NC3CN(CCCF)C3)c(F)c2)N1CC(F)(F)F` [Example 41, N-(2-fluoro-4-((6R,8R)-8-methyl-7-(2,2,2-trifluoroethyl)-6,7,8,9-tetrahydro-3H-pyrazolo[4,3-f]isoquinolin-6-yl)phenyl)-1-(3-fluoropropyl)azetidin-3-amine], the values for the IC50 (in data set [1]; on hERG potassium channel; in data set [5]) were 2.4 nM, 6500 nM and 0.17 nM, respectively. Moreover, the solubility at 24 h in data set [2] is 120 µM (≈ 59.2 µg/mL). The logD in data set [3] (setting [7]) was 4.1. The “Human plasma protein binding (% free)” value in data set [4] is on record as 2.2 % free.

On to `C[C@@H]1Cc2c(ccc3[nH]nc(F)c23)[C@@H](c2cnc(NC3CN(CCCF)C3)cn2)N1CC(F)(F)F` [Example 38, 5-((6S,8R)-1-fluoro-8-methyl-7-(2,2,2-trifluoroethyl)-6,7,8,9-tetrahydro-3H-pyrazolo[4,3-f]isoquinolin-6-yl)-N-(1-(3-fluoropropyl)azetidin-3-yl)pyrazin-2-amine], for which the values for the IC50 (in data set [1]; at hERG potassium channel; in data set [5]) were 0.69 nM, 18000 nM and 0.19 nM, respectively. The same molecule displayed a solubility at 24 h in data set [2] of 794 µM (≈ 393 µg/mL). The logD in data set [3] (setting [7]) was 3.1. In addition, the “Human plasma protein binding (% free)” value in data set [4] was 13 % free.

Consider `COc1cc(NC2CN(CCCF)C2)ccc1[C@]1(C)c2ccc3[nH]ncc3c2C[C@@H](C)N1CC(F)F` [Example 45, N-(4-((6S,8R)-7-(2,2-difluoroethyl)-6,8-dimethyl-6,7,8,9-tetrahydro-3H-pyrazolo[4,3-f]isoquinolin-6-yl)-3-methoxyphenyl)-1-(3-fluoropropyl)azetidin-3-amine], for which the IC50 was 1.6 nM in data set [1], 4200 nM on hERG potassium channel and 0.3 nM in data set [5]. Further, the solubility at 24 h in data set [2] came out at 172 µM (≈ 86.3 µg/mL). This molecule also yielded a logD in data set [3] (setting [7]) of 3.9. Also, the “Human plasma protein binding (% free)” value in data set [4] stood at 6.2 % free.

Take `C[C@@H]1Cc2c(ccc3[nH]nc(F)c23)[C@@H](c2ccc(NC3CN(CCCF)C3)cn2)N1CC(F)(F)CO` [Example 61, 2,2-difluoro-3-((6S,8R)-1-fluoro-6-(5-((1-(3-fluoropropyl)azetidin-3-yl)amino)pyridin-2-yl)-8-methyl-3,6,8,9-tetrahydro-7H-pyrazolo[4,3-f]isoquinolin-7-yl)propan-1-ol]: the IC50 in data set [1] was 0.88 nM; on hERG potassium channel, above 40000 nM; in data set [5], 0.13 nM. In data set [2], this molecule had a solubility at 24 h of 848 µM (≈ 430 µg/mL). For the same molecule, the logD in data set [3] (setting [7]) worked out at 2.7. For the same molecule, the “Human plasma protein binding (% free)” value in data set [4] is listed as 29 % free.

Consider `C[C@@H]1Cc2c(ccc3[nH]nc(F)c23)[C@@H](c2ccc(NC3CN(CCCF)C3)c(F)n2)N1CC(F)(F)CO` [Example 62, 2,2-difluoro-3-((6S,8R)-1-fluoro-6-(6-fluoro-5-((1-(3-fluoropropyl)azetidin-3-yl)amino)pyridin-2-yl)-8-methyl-3,6,8,9-tetrahydro-7H-pyrazolo[4,3-f]isoquinolin-7-yl)propan-1-ol], for which the IC50 in data set [1] is 1 nM; at hERG potassium channel, above 40000 nM; in data set [5], 0.13 nM. In addition, the solubility at 24 h in data set [2] came to 784 µM (≈ 411 µg/mL). Also, in data set [3] (setting [7]), the logD is 2.8. Besides, the “Human plasma protein binding (% free)” value in data set [4] turned out to be 19 % free.

With `C[C@@H]1Cc2c(ccc3[nH]nc(F)c23)[C@@H](c2ccc(NC3CN(CCCF)C3)c(F)n2)N1CC(F)(F)F` [Example 39, 2-fluoro-6-((6S,8R)-1-fluoro-8-methyl-7-(2,2,2-trifluoroethyl)-6,7,8,9-tetrahydro-3H-pyrazolo[4,3-f]isoquinolin-6-yl)-N-(1-(3-fluoropropyl)azetidin-3-yl)pyridin-3-amine], the 50% inhibitory concentration (IC50) in data set [1] came to 0.94 nM; at hERG potassium channel, 14000 nM; in data set [5], 0.048 nM. The molecule further showed a solubility at 24 h in data set [2] of 257 µM (≈ 132 µg/mL). This molecule returned a logD in data set [3] (setting [6]) of 3.7. Moreover, in data set [4], the “Human plasma protein binding (% free)” value was found to be 6.8 % free.

On to `COc1cc(N(C)C2CN(CCCF)C2)ccc1[C@@H]1c2ccc3[nH]ncc3c2C[C@@H](C)N1CC1(F)CC1` [Example 52, N-(4-((6S,8R)-7-((1-fluorocyclopropyl)methyl)-8-methyl-6,7,8,9-tetrahydro-3H-pyrazolo[4,3-f]isoquinolin-6-yl)-3-methoxyphenyl)-1-(3-fluoropropyl)-N-methylazetidin-3-amine], for which the IC50 was found to be 11 nM in data set [1], 2000 nM at hERG potassium channel and 0.21 nM in data set [5]. This molecule yielded a solubility at 24 h in data set [2] of 864 µM (≈ 440 µg/mL). This molecule displayed a logD in data set [3] (setting [7]) of 3. Further, in data set [4], the “Human plasma protein binding (% free)” value was 19 % free.

The IC50 is the concentration needed to halve the response being measured. In general, solubility refers to the dissolved amount per volume that the medium holds. Read a high solubility as much dissolved substance. Broadly, the logD is the decadic logarithm of the distribution of all forms, ionised or not, between an organic phase and buffer at a given pH. A high value points to higher lipophilicity.

These data come from patent US10131663B2, “Chemical compounds” (AstraZeneca AB, priority 2016, dated 2018).
